This is an account of results in ChEMBL document CHEMBL3853298, “Total synthesis and in vitro bioevaluation of clavaminols A, C, H & deacetyl clavaminol H as potential chemotherapeutic and antibiofilm agents” (Eur J Med Chem, 2016).

What all share (format): functional, cell-based
A short description of assay [1]: Cytotoxicity against human SKOV3 cells assessed as cell growth inhibition by MTT assay. Particulars: SK-OV-3. A general note: Tetrazolium dyes change colour on reduction, which living cells bring about.
Assay [2] is described as follows: Cytotoxicity against human DU145 cells assessed as cell growth inhibition by MTT assay. Particulars: DU-145.
A short description of assay [3]: Cytotoxicity against human MCF7 cells assessed as cell growth inhibition by MTT assay.

One may read the IC50 as the point on the concentration scale where inhibition reaches its midpoint. Consider `COc1cccc2c1C(=O)c1c(O)c3c(c(O)c1C2=O)C[C@@](O)(C(=O)CO)C[C@@H]3O[C@H]1C[C@H](N)[C@H](O)[C@H](C)O1` [DOXORUBICIN], for which the IC50 in assay [1] was 700 nM; in assay [2] it was 700 nM; in assay [3] it was 800 nM.
